This note sets out measurements from patent US11567011B2, “System and method for drug detection in exhaled breath” (Sensa Bues AB, priority 2009, dated 2023).

The nature of data set [1]: Example 1: amphetamine and methamphetamine in expired air collected on SPE cartridge, SRM UPLC-MS/MS. Conditions: all 12 studied patients.
A short description of data set [2]: Example 2: methadone in exhaled breath collected on Empore C18 disc, UPLC-MS/MS. Conditions: all 13 studied patients.

For the molecule `CN[C@@H](C)Cc1ccccc1` [methamphetamine], the “detection in the expired air sample” value in data set [1] is recorded as “detected”.
For `CCC(=O)C(CC(C)N(C)C)(c1ccccc1)c1ccccc1` (centres unmarked) [methadone], in data set [2], the “detection in the sampled exhaled breath” value is reported as “detected”.
